According to patent US8748451B2, “HDAC inhibitors and therapeutic methods of using same” (The Board of Trustees of the University of Illinois, priority 2009, dated 2014):
Where two headings read alike, the source gives them in different places.

Legend:
primary cortical neurons = assay: HCA oxidative stress neuroprotection assay (MTT viability)
Aβ-infused mice = assay: Contextual fear conditioning after Aβ42 infusion; assay type: in vivo
Description: In this test, mice were infused with Aβ42 via cannulas implanted into dorsal hippocampus 15 minutes prior to training. […] Fear learning was assessed 24 hours later.

mice = assay: Visible platform test; assay type: in vivo; conditions: injected twice a day for two days
[1] = tested on: collagen-induced arthritis model in DBA1/J mice; assay: Collagen-induced arthritis model; assay type: in vivo; conditions: 50 and 100 mg/kg IP
From the text: In this test, DBA1/J mice (male, 7-8 weeks) were used, with 8 animals per group. Systemic arthritis was induced with bovine collagen type II and CFA, plus an IFA booster injection on day 21.
The results are summarized in FIG. 3, containing graphs of Average Arthritic Score vs. Days of Treatment.

murine Treg = assay: Murine Treg suppression; assay type: cell-based
Human HDAC6 = Human HDAC6 (Homo sapiens (Human), UniProt Q9UBN7); assay: HDAC6 inhibition assay (fluorogenic p53 peptide substrate); assay type: biochemical; conditions: for IC50: mean of two experiments (TSA: 9), 10-dose, 3-fold serial dilution from 30 μM, read-out: HDAC6 IC50 (μM) ± SD
Sequence of Human HDAC6 (Q9UBN7 whole entry): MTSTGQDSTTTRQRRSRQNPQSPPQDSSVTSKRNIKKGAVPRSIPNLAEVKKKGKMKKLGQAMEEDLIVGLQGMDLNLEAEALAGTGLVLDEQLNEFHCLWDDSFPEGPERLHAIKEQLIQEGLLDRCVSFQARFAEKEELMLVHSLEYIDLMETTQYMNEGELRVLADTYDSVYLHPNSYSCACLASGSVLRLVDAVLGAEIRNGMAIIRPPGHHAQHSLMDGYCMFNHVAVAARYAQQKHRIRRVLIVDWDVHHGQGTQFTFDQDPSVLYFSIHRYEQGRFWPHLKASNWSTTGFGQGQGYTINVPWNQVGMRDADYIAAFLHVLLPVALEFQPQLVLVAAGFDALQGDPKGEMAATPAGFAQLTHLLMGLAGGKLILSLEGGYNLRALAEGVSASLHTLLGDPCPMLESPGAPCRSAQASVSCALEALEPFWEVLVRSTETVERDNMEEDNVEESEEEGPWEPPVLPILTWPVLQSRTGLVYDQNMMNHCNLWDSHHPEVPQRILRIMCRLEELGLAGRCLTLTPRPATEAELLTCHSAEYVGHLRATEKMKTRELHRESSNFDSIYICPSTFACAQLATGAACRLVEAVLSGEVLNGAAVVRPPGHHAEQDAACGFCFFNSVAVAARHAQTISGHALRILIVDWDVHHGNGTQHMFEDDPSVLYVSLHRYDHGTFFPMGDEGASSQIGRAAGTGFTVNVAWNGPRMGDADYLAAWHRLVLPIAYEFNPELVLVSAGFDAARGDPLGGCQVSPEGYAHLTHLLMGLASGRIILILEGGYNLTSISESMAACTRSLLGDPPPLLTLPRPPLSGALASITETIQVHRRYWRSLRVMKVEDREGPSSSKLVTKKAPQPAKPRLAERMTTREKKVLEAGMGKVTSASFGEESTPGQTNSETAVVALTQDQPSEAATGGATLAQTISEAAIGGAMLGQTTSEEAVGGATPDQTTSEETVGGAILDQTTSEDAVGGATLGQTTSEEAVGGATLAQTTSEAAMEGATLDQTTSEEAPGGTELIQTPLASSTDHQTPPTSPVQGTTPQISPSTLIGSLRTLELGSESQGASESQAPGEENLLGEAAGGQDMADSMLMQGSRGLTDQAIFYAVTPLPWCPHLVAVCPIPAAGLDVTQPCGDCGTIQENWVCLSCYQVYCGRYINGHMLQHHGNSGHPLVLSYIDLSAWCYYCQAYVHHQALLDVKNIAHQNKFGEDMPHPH

Human HDAC1 = Human HDAC1 (Homo sapiens (Human), UniProt Q13547); assay: HDAC1 inhibition assay (fluorogenic p53 peptide substrate); assay type: biochemical; conditions: read-out: HDAC1 IC50 (μM) ± SD
Sequence of Human HDAC1 (Q13547 whole entry): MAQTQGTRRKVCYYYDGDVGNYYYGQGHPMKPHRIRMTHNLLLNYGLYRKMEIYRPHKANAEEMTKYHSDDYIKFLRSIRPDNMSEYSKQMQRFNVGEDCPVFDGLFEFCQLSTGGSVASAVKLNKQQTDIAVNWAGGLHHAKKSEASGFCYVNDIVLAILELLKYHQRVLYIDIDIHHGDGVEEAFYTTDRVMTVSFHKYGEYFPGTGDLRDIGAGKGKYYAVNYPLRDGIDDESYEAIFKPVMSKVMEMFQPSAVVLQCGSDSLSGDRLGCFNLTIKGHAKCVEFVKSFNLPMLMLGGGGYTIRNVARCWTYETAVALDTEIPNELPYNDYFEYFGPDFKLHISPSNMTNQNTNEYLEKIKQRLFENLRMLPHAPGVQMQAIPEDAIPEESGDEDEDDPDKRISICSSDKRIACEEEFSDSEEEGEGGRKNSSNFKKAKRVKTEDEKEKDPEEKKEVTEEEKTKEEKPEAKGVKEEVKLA

HDAC7 = HDAC7 (Homo sapiens (Human), UniProt Q8WUI4); assay: HDAC7 inhibition assay
Sequence of HDAC7 (Q8WUI4 whole entry): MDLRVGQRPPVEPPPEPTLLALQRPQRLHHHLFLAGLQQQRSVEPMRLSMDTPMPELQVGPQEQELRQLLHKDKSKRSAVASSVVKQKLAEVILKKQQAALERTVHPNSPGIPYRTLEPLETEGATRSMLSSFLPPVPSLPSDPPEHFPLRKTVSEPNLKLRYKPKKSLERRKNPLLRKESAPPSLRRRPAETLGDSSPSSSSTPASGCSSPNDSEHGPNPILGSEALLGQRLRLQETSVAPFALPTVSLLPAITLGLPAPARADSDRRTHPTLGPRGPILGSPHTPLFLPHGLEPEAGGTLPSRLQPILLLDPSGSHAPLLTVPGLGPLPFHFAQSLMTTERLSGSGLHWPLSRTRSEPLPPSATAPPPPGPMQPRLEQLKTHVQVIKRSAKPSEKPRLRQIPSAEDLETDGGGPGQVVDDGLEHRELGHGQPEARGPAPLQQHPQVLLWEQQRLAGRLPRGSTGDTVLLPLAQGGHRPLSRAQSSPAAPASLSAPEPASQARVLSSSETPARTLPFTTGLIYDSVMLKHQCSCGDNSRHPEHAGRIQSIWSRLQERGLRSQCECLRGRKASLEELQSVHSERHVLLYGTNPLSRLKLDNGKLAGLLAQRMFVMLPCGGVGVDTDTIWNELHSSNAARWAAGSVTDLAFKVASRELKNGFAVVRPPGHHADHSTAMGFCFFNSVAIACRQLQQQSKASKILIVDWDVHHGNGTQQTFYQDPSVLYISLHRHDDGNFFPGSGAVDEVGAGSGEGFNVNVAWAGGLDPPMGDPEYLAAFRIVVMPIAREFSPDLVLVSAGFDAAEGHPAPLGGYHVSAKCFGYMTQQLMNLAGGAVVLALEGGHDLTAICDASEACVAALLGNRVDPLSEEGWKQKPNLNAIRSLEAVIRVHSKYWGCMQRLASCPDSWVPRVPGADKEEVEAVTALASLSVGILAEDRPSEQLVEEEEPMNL

HDAC2 = HDAC2 (Homo sapiens (Human), UniProt Q92769); assay: biochemical
Sequence of HDAC2 (Q92769 whole entry): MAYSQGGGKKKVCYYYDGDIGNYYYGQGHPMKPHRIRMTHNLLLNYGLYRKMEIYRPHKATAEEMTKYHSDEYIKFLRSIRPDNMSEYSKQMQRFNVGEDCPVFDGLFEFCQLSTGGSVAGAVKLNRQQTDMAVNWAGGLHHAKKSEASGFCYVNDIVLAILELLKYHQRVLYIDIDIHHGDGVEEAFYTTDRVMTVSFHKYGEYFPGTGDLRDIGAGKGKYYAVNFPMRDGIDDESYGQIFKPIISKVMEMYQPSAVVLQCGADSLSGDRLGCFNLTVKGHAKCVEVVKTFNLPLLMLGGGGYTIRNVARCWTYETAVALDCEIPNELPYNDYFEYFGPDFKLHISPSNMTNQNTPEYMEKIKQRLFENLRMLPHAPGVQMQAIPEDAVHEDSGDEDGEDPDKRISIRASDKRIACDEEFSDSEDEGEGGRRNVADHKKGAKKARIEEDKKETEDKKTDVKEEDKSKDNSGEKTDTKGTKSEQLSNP

HDAC5 = HDAC5 (Homo sapiens (Human), UniProt Q9UQL6); assay: biochemical; conditions: mean of two experiments; read-out: HDAC5 IC50 (μM) ± SD
Sequence of HDAC5 (Q9UQL6 whole entry): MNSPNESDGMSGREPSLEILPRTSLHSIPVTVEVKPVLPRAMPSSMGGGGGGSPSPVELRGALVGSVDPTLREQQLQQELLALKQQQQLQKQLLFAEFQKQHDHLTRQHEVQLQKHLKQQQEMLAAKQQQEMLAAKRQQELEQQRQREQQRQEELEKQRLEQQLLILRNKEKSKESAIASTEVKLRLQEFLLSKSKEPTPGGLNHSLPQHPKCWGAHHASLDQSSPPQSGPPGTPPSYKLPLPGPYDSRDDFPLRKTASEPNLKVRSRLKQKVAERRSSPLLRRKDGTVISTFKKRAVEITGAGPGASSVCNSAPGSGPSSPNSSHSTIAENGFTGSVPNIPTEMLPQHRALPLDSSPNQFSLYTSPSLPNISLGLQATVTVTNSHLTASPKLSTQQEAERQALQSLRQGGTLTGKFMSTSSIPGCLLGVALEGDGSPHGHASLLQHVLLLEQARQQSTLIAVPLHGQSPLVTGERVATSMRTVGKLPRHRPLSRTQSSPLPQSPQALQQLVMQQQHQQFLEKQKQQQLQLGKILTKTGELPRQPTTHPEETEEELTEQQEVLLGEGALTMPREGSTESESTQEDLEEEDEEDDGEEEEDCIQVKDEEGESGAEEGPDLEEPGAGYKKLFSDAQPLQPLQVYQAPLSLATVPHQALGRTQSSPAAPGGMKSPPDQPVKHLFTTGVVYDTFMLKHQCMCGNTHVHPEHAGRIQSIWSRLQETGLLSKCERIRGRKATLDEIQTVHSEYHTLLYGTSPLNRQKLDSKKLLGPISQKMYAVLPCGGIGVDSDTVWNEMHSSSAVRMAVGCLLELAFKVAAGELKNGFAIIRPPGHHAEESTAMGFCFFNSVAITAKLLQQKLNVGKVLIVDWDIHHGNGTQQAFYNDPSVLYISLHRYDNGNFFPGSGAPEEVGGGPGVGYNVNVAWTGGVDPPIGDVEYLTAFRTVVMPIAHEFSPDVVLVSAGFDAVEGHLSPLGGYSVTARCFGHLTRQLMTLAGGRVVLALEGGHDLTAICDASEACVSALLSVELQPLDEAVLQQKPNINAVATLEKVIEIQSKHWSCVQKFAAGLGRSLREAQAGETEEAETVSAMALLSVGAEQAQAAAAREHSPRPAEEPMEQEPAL

mice with colitis = assay: Colitis in mice; assay type: in vivo; conditions: treatment begun once colitis had developed
From the text: Studies of autoimmunity also are undertaken. In this case, interruption of existing disease is especially important and HDAC6 targeting can be efficacious without any requirement for additional therapy (in contrast to a need for brief low-dose RPM in the very aggressive, fully MHC-mismatched transplant models). […] These studies are extended by assessing whether deletion of HDAC6 in Tregs (Foxp3/Cre) vs. T cells (CD4=Cre) vs. DC (CD11c-Cre) differentially affect the development and severity of colitis. Similarly, control of colitis is assessed by inducing HDAC6 deletion at varying intervals after the onset of colitis with tamoxifen-regulated Cre.

[2] = mean of two experiments (TSA: 9), 10-dose, 3-fold serial dilution from 30 μM

Compound: CN1CCc2c(c3ccccc3n2Cc2ccc(C(=O)NO)cc2)C1 [Compound 6, N-Hydroxy-4-(2-methyl-1,2,3,4-tetrahydro-pyrido[4,3-b]indol-5-ylmethyl)benzamide]
- toxicity to neurons when tested alone (primary cortical neurons; alone (no HCA), all concentrations shown): no toxicity
- concentration at which dose-dependent protection against HCA-induced neuronal cell death starts (primary cortical neurons; with HCA 5 mM, 24 h): 5 µM
- signs of overt toxicity (food and liquid intake, weight loss, locomotion, exploratory behavior) (Aβ-infused mice; during the memory experiments): no signs of overt toxicity
- freezing response (contextual fear conditioning) (Aβ-infused mice; vehicle-infused mice, 25 mg/kg ip): no effect
- effects on motor, sensorial, or motivational skills (mice): no effects
- body weight [1]: No loss of body weight
- concentration enhancing murine Treg suppression (murine Treg): greater than 100 μM

Compound: CN1CCc2c(n(Cc3ccc(C(=O)NO)cc3)c3ccccc23)C1 [Compound 7, N-Hydroxy-4-(2-methyl-1,2,3,4-tetrahydro-b-carbolin-9-ylmethyl)benzamide]
- selectivity for HDAC6 against HDAC1 (Human HDAC6; HDAC1 IC50/HDAC6 IC50): 3700 fold

Compound: O=C(CCn1c2ccccc2c2ccccc21)NO [Compound 8, 3-Carbazol-9-yl-N-hydroxy-propionamide]
- IC50 (Human HDAC6): 1.59 ± 0.08 µM
- IC50 (Human HDAC1; [2]): > 30 µM

Compound: O=C(CCCCn1c2ccccc2c2ccccc21)NO [Compound 9, 5-Carbazol-9-yl-pentanoic acid hydroxyamide]
- IC50 (Human HDAC6): 2.63 ± 0.04 µM
- IC50 (Human HDAC1): 12.8 ± 0.7 µM

Compound: O=C(CCCCCCn1c2ccccc2c2ccccc21)NO [Compound 10, 7-Carbazol-9-ylheptanoic acid hydroxyamide]
- IC50 (Human HDAC6): 0.006 ± 0.002 µM
- IC50 (Human HDAC1): 0.204 ± 0.087 µM

Compound: O=C(NO)n1c2ccccc2c2ccccc21 [Compound 13, Carbazole-9-carboxylic acid hydroxyamide]
- IC50 (Human HDAC6): > 30 µM
- IC50 (Human HDAC1; [2]): > 30 µM

Compound: O=C(CCCCCCC(=O)Nc1ccc([C@H]2O[C@@H](CSc3nc(-c4ccccc4)c(-c4ccccc4)o3)C[C@@H](c3ccc(CO)cc3)O2)cc1)NO [Tubacin]
- IC50 (HDAC7): 9.7 ± 1.8 µM
- IC50 (HDAC2): 6.27 ± 0.29 µM
- IC50 (HDAC5): 3.35 ± 0.03 µM
- rescue of mice with established colitis (mice with colitis): able to rescue mice
